Laboratory results published in patent US20200032271A1, “COMBINATION THERAPY WITH LIPOSOMAL ANTISENSE OLIGONUCLEOTIDES” (Bio-Path Holdings, Inc., priority 2016, published 2020).
“And” between values parts separate entries of the source, which are not always exact repeats. Identical values can stand only once. [PEt] = P-ethoxy (ethyl phosphotriester) internucleoside linkage

Assays:
ALL-1 = test: Inhibition of proliferation of leukemic cell lines by BP1001; assay type: cell-based, human; settings: 5 days
Source text: (§1) BP1001 is a neutral liposome incorporated with the nuclease-resistant, hydrophobic P-ethoxy antisense oligos targeted to Grb2 mRNA. In preclinical studies, BP1001 was effective in inducing growth inhibition and decreasing ERK1,2 and Akt phosphorylation in imatinib-sensitive and imatinib-resistant CML cell lines.

BV173 = test: as above; assay type: cell-based, human; settings: 5 days
Source text: as §1

K562 = test: as above; assay type: cell-based, human; settings: 4 days
Source text: as §1

[1] = system: HL60 (Ph-negative, Bcr-Abl negative); test: as above; assay type: cell-based, human; settings: [BP1001] 0-12 μM, 5 days
Source text: as §1

[2] = Multiple-dose toxicity study in mice; settings: mouse
[3] = system: phosphorylated Erk1,2 (pErk); test: Flow cytometry of pErk levels in circulating leukemia cells of patients; assay type: in vivo, human; settings: for pErk decrease (%) (Day 15) / pErk decrease (%) (Day 22 or end-of-treatment): individual subjects
Source text: Flow cytometry was used to determine the levels of Grb2 and pErk proteins in the circulating leukemia cells of patients who were on BP1001 single agent therapy, and were reported as median fluorescent intensity (MFI). MFI of Grb2 and pErk during treatment were compared to those at baseline.
Peripheral blood was collected from patients in cohorts 3, 4, 5, and 6, before being dosed on Cycle 1 days 1, 8, 15 and 22, and Cycle 2 day 1. White blood cells were isolated from peripheral blood using BD Vacutainer CPT cell preparation tubes with sodium heparin (BD Dickinson), fixed and stored in −80° C. freezer. Flow cytometry was utilized to determine Grb2 and phosphorylated Erk1,2 (pErk) levels in CD33-expressing cells using a validated method (Flow Contract Site Laboratory, Bothell, Wash., USA).
Flow cytometry was utilized to determine the levels of Grb2 and pErk proteins in the circulating leukemia cells of patients who were on BP1001 single agent therapy, and were reported as median fluorescent intensity (MFI). MFI of Grb2 and pErk during treatment were compared to those at baseline (Table 7).

[4] = system: five strains of Salmonella; test: Ames mutagenicity study; assay type: cell-based; settings: presence and absence of S-9
Experimental: BP1001 was tested in an Ames mutagenicity study. Sodium chloride (0.9%) was added to vials of BP1001 containing 5 mg of Grb2 oligonucleotide. The sample was tested against five strains of Salmonella in various concentrations in the presence and absence of the S-9 enzyme activation system. The sample was not mutagenic to the strains tested.

[5] = system: 32Dp210 Bcr-Abl positive leukemia cells; test: Survival of mice injected with 32Dp210 Bcr-Abl positive leukemia cells, first study; assay type: in vivo
Experimental: In one study, mice injected with 32Dp210 Bcr-Abl positive leukemia cells were treated with BP1001 (15 mg/kg/dose) or control (empty DOPC liposomes) intravenously beginning one day after injection of tumor cells, twice weekly for up to 6 weeks Mice were observed daily for moribundity/morbidity. All surviving mice were euthanized on Day 40. In mice injected with 32Dp210 Bcr-Abl positive leukemia cells, 60% treated with BP1001 survived to 40 days (end of study) compared to 17% of mice receiving empty liposomes. Mean survival duration in these treated animals was 31.6±13.1 days compared to 23.7±8.3 days in the empty liposome group (FIG. 6A).

BV173 cells = test: Cell cycle analysis (7-AAD flow cytometry); assay type: cell-based, human; settings: BP1001 1 day before dasatinib, harvested three days later (FIGS. 8A-D)
Experimental: Cells were then fixed and permeabilized for 1 h at 4° C. with 1×Fixation/Permeabilization buffer (Ebioscience, San Diego, Calif., USA). After permeabilization, cells were washed and incubated with 7-aminoactinomycin D (7-AAD, Biolegend, San Diego, Calif., USA) in the dark at 4° C. for about 30 min. Flow cytometric data acquisition was acquired using BD FACSDiva™ software (BD Biosciences, San Jose, Calif., USA). The flow cytometer was set to collect 20,000 events. Relative percentages in the different cell cycle phases (sub-G1, G1, S, G2/M) were reported.
[…] Three days later, cells were harvested and processed for flow cytometry.

[6] = Plasma pharmacokinetics of Grb2 antisense oligo in patients; settings: human, in vivo
Experimental: Pharmacokinetic (PK) analysis was performed on plasma samples collected from refractory/relapsed patients diagnosed with AML receiving BP1001 (60 mg/m^2)+LDAC or receiving BP1001 (90 mg/m^2)+LDAC.
Blood samples for measurement of Grb2 antisense oligo concentrations were collected from patients in cohorts 7 and 8, at predose, 1, 2, 4, 6, 8, 24, 72 h post start-of-infusion (SOI). Urine samples for measurement of BP1001 concentrations were also collected from patients in cohorts 7 and 8, at start of dose-4 h, 4-8 h postdose, and 8-24 h postdose. PK blood samples were processed to plasma and analyzed using a validated method (Charles River Laboratories, Montreal, Canada) with a lower limit of quantitation (LLOQ; 0.5 ng/mL). Urine samples were analyzed using a validated method (Charles River Laboratories, Montreal, Canada) with a LLOQ of 1.00 ng/mL.
PK parameters were estimated using Phoenix pharmacokinetic software (Certara). A non-compartmental approach consistent with the IV infusion route of administration was used for parameter estimation, using an estimated infusion time of 2.5 h. All parameters were generated from Grb2 antisense oligo individual concentrations in plasma from Day 1 of Cycle 1, whenever practical. […] Parameters were estimated using nominal sampling times relative to the start of infusion. The area under the concentration vs. time curve (AUC) was calculated using the linear trapezoidal method with linear interpolation. The slope of the terminal elimination phase was determined using log linear regression on the unweighted concentration data.

CHO cells = test: In vitro mammalian chromosome aberration test; assay type: cell-based; settings: non-activated and S9-activated
Experimental: BP1001 was tested in the chromosome aberration assay using CHO cells in both the absence and presence of an Aroclor-induced S9 activation system. A preliminary toxicity test was performed to establish the dose range for the chromosome aberration assay. The chromosome aberration assay was used to evaluate the clastogenic potential of the BP1001. Based on the findings of this study, BP1001 was concluded to be negative for the induction of structural and numerical chromosome aberrations in CHO cells in both the non-activated and the S9-activated test systems.

[7] = 15 and 25 mg oligo/kg i.v. daily for five days

Substance: BP1001: liposome-incorporated P-ethoxy antisense oligodeoxynucleotide (5′-ATATTTGGCGATGGCTTC-3′, SEQ ID NO: 1) specific to grb2 mRNA, in neutral DOPC liposomes (DNA, all [PEt], methylation of C not given here; incorporated in neutral DOPC liposomes)
- IC50 (ALL-1): 4 µM
- Decrease in viability (ALL-1; [BP1001] 0-6 μM): 100%
- IC50 (BV173): 8 µM
- Decrease in viability (BV173; [BP1001] 0-10 μM): 70%
- IC50 (K562): 8 µM
- Decrease in viability (K562; [BP1001] 0-12 μM): 80%
- Decrease in viability [1]: 0%
- WBC counts at two weeks post-injection, persisting at six weeks [2, 7]: Reduction
- morbidity or mortality [2, 7]: No signs of morbidity or mortality
- drug-related lesions in examined organs ([2]; multiple i.v. 15-25 mg/kg): no drug-related lesions
- pErk decrease (%) (Day 15) ([3]; cohort 3, 20 mg/m^2): 3% and 28% and 0%
- pErk decrease (%) (Day 22 or end-of-treatment) ([3]; cohort 3, 20 mg/m^2): 45% and 35% and 0%
- pErk decrease (%) (Day 15) ([3]; cohort 4, 40 mg/m^2): 82% and 0%
- pErk decrease (%) (Day 22 or end-of-treatment) ([3]; cohort 4, 40 mg/m^2): 91% and 0% and 27%
- pErk decrease (%) (Day 15) ([3]; cohort 5, 60 mg/m^2): 0% and 51% and 55%
- pErk decrease (%) (Day 22 or end-of-treatment) ([3]; cohort 5, 60 mg/m^2): 54% and 0% and 47%
- pErk decrease (%) (Day 15) ([3]; cohort 6, 90 mg/m^2): 0% and 54% and 42%
- pErk decrease (%) (Day 22 or end-of-treatment) ([3]; cohort 6, 90 mg/m^2): 0% (2×) and 63%
- average decrease in pErk levels ([3]; last measured sample): 52%
- samples with ≥25% decrease of pErk levels ([3]; last measured sample (end of treatment or cycle 1 day 22), MFI vs baseline): 7 out of 12
- mutagenicity [4]: not mutagenic
- Mean survival duration ([5]; 15 mg/kg/dose i.v. twice weekly): 31.6 ± 13.1 days
- mice surviving to 40 days (end of study) ([5]; 15 mg/kg/dose i.v. twice weekly from day 1 after tumor cells): 60%
- percentage of cells in sub-G1 phase (BV173 cells): 3.1%
- Tmax ([6]; 60 mg/m2): 1 h
- t1/2 ([6]; 60 mg/m2): 29.6 ± 8.1 h
- Tmax ([6]; 90 mg/m2): 1 h
- t1/2 ([6]; 90 mg/m2): 11.8 ± 5.4 h
- induction of structural and numerical chromosome aberrations (CHO cells): negative
